Laboratory results reported in patent US8304410B2, “Pyrrole compounds as inhibitors of mycobacteria, synthesis thereof and intermediates thereto” (priority 2007, dated 2012).
≈ marks a conversion by molar mass, not a printed value. Where “and” joins values, the source holds several entries; their conditions need not be identical. Identical values can stand only once. Like-named read-outs stand apart in the source and are kept apart here.

Assays:
in vitro = conditions: African green monkey
M. smegmatis 103599 = experiment: Antimycobacterial activity, agar dilution MIC; assay type: cell-based
M. tuberculosis 103471 = experiment: Antimycobacterial activity, twofold agar dilution MIC; assay type: cell-based; conditions: for M. tuberculosis 103471 MIC: Middlebrook 7H11 agar; for MIC: Mycobacterium tuberculosis, 103471, Middlebrook 7H11 agar
Experimental: (§1) Compounds 3a-h were preliminarily assayed against two freshly isolated clinical strains, M. fortuitum CA10 and M. tuberculosis B814, according to the dilution method in agar (Hawkins et al., 1991).
(§2) Growth media were Mueller-Hinton (Difco) containing 10% of OADC (oleic acid, albumine and dextrose complex) for M. fortuitum and Middlebrook 7H11 agar (Difco) with 10% of OADC for M. tuberculosis. Substances were tested at the single dose of 100 μg/mL. The active compounds were then assayed for inhibitory activity against a variety of mycobacterium strains in Middlebrok 7H11 agar by a standard twofold agar dilution method. The mycobacterium species used for biological tests were M. tuberculosis […], M. tuberculosis H37Rv, M. tuberculosis INH-R ATCC, M. tuberculosis RMP-R ATCC and, among atypical mycobacteria, M. smegmatis 103599, M. marinum 6423 and M. avium 103317 (from the Institute Pasteur collection). Plates were incubated at 37° C. for 3 or 28 days. BM212, INH, SM and RIF were used as reference compounds. After cultivation, MICs were read as minimal concentrations of drugs completely inhibiting visible growth of mycobacteria.

M. avium 103317 = experiment: Antimycobacterial activity, agar dilution MIC; assay type: cell-based
[1] = tested on: intracellular M. tuberculosis; experiment: Inhibitory activity on intramacrophagic mycobacteria (J774.A1 murine macrophages); assay type: cell-based; conditions: after 6 days of treatment
M. marinum 6423 = experiment: Antimycobacterial activity, agar dilution MIC; assay type: cell-based
M. tuberculosis H37Rv = experiment: Antimycobacterial activity, twofold agar dilution MIC; assay type: cell-based; conditions: Middlebrook 7H11 agar; for MIC: Mycobacterium tuberculosis, H37RV
Experimental: as §1, §2

atypical mycobacteria = experiment: Antimycobacterial activity toward atypical mycobacteria; assay type: cell-based; conditions: M. avium, M. marinum, M. smegmatis together
Experimental: as §2

Vero cells = conditions: MTT after 72 h
[2] = Mycolicibacterium smegmatis, 103599; read-out: M. smegmatis 103599 MIC
[3] = Mycobacterium avium, 103317; Table 7 head prints strain 103471; read-out: M. avium 103471 MIC
[4] = Mycobacterium avium, 103317; read-out: M. avium 103317 MIC
[5] = Mycobacterium marinum, 6423; read-out: M. marinum 6423 MIC
[6] = Table 7 head prints strain 103471

| Compound | CC50 (in vitro) [µg/mL] | MIC (M. smegmatis 103599; [2]) [µg/mL] | M. tuberculosis 103471 MIC (M. tuberculosis 103471) | MIC (M. tuberculosis 103471) [µg/mL] | MIC (M. avium 103317; [3]) [µg/mL] | MIC (M. avium 103317; [4]) [µg/mL] | MIC (M. marinum 6423; [5]) [µg/mL] | MIC (M. tuberculosis H37Rv) [µg/mL] | CC50 VERO cells (Vero cells) [µg/mL] | M. tuberculosis H37Rv MIC (M. tuberculosis H37Rv) [µg/mL] | M. avium 103471 MIC (M. avium 103317; [6]) [µg/mL] | also measured |
| --- | --- | --- | --- | --- | --- | --- | --- | --- | --- | --- | --- | --- |
| Cc1c(CN2CCN(C)CC2)cc(-c2ccc(Cl)cc2)n1-c1ccc(Cl)cc1 [BM 212, 1-{[1,5-bis(4-chlorophenyl)-2-methyl-1H-pyrrol-3-yl]methyl}-4-methylpiperazine] | 4 (≈ 9.65 µM) | 25 (≈ 60.3 µM) | 0.7 µg/mL | 0.7 (≈ 1.69 µM) | 0.4 (≈ 0.965 µM) | 0.4 (≈ 0.965 µM) | 100 (≈ 241 µM) |  |  |  |  | % of growth reduction respect to untreated controls, intracellular M. tuberculosis ([1]; concentration 0.125 μg/ml): 0%; % of growth reduction respect to untreated controls, intracellular M. tuberculosis ([1]; concentration 0.25 μg/ml): 29.41%; % of growth reduction respect to untreated controls, intracellular M. tuberculosis ([1]; concentration 0.5 μg/ml): 32.35%; % of growth reduction respect to untreated controls, intracellular M. tuberculosis ([1]; concentration 1 μg/ml): 51.76% |
| CSc1ccc(-c2cc(CN3CCSCC3)c(C)n2-c2ccc(F)cc2)cc1 [Compound 3a, N-(4-fluorophenyl)-2-methyl-3-thiomorpholinomethyl-5-(4-methylsulfanylphenyl)pyrrole] | > 128 | 16 (≈ 38.8 µM) | 0.125 µg/mL and <0.125 µg/mL | < 0.125 | 8 (≈ 19.4 µM) | 8 (≈ 19.4 µM) | 8 (≈ 19.4 µM) | 0.125 (≈ 0.303 µM) |  |  |  | activity toward atypical mycobacteria (MIC range) (atypical mycobacteria): 8 to 16 µg/mL; % of growth reduction respect to untreated controls, intracellular M. tuberculosis ([1]; concentration 0.125 μg/ml): 96.12%; % of growth reduction respect to untreated controls, intracellular M. tuberculosis ([1]; concentration 0.25 μg/ml): 99.02%; % of growth reduction respect to untreated controls, intracellular M. tuberculosis ([1]; concentration 0.5 μg/ml): 99.72%; % of growth reduction respect to untreated controls, intracellular M. tuberculosis ([1]; concentration 1 μg/ml): 99.81% |
| CSc1ccc(-c2cc(CN3CCSCC3)c(C)n2-c2ccc(C)cc2)cc1 [Compound 3b] |  |  | 0.25 µg/mL |  |  |  |  |  | 18.40 (≈ 45 µM) | 0.25 | 16 |  |
| CCc1ccc(-n2c(-c3ccc(SC)cc3)cc(CN3CCSCC3)c2C)cc1 [Compound 3c] |  |  | 0.25 µg/mL |  |  |  |  |  | 17.18 (≈ 40.6 µM) | 0.25 | >16 |  |
| CCCc1ccc(-n2c(-c3ccc(SC)cc3)cc(CN3CCSCC3)c2C)cc1 [Compound 3d] |  |  | 0.125 µg/mL |  |  |  |  |  | 25.25 (≈ 57.8 µM) | 0.5 | 8 |  |
| CSc1ccc(-c2cc(CN3CCSCC3)c(C)n2-c2ccc(C(C)C)cc2)cc1 [Compound 3e] |  |  | 0.125 µg/mL |  |  |  |  |  | 37.58 (≈ 86.1 µM) | 0.5 | 8 |  |
| CSc1ccc(-c2cc(CN3CCN(C)CC3)c(C)n2-c2ccc(F)cc2)cc1 [Compound 3f] |  |  | 2 µg/mL |  |  |  |  |  | 9.33 (≈ 22.8 µM) | 2 | 4 |  |
| CSc1ccc(-c2cc(CN3CCCCC3)c(C)n2-c2ccc(F)cc2)cc1 [Compound 3g] |  |  | 8 µg/mL |  |  |  |  |  |  |  |  |  |
| CSc1ccc(-c2cc(CN3CCOCC3)c(C)n2-c2ccc(F)cc2)cc1 [Compound 3h] |  |  | 0.25 µg/mL |  |  |  |  |  | 44.34 (≈ 112 µM) | 0.5 | 16 |  |
| NNC(=O)c1ccncc1 [Isoniazid, INH, Isoniazid, reference compound] | 32 (≈ 233 µM) |  |  | 0.125 (≈ 0.911 µM) |  |  |  | 0.25 (≈ 1.82 µM) |  |  |  | MIC (M. smegmatis 103599; Mycolicibacterium smegmatis, 103599, read-out: M. smegmatis 103599 MIC): 64 µg/mL (≈ 467 µM); MIC (M. avium 103317; Mycobacterium avium, 103317, read-out: M. avium 103317 MIC): 32 µg/mL (≈ 233 µM); MIC (M. avium 103317; Mycobacterium avium, 103317, read-out: M. avium 103471 MIC): 32 µg/mL (≈ 233 µM); MIC (M. marinum 6423; Mycobacterium marinum, 6423, read-out: M. marinum 6423 MIC): 16 µg/mL (≈ 117 µM) |
| CO[C@H]1/C=C/O[C@@]2(C)Oc3c(C)c(O)c4c(O)c(c(/C=N/N5CCN(C)CC5)c(O)c4c3C2=O)NC(=O)/C(C)=C\C=C\[C@H](C)[C@H](O)[C@@H](C)[C@@H](O)[C@@H](C)[C@H](OC(C)=O)[C@@H]1C [Rifampicin, RIF, Rifampicin] | > 64 | 32 (≈ 38.9 µM) |  | 0.25 (≈ 0.304 µM) | 0.3 (≈ 0.365 µM) | 0.3 (≈ 0.365 µM) | 0.6 (≈ 0.729 µM) | 0.8 (≈ 0.972 µM) |  |  |  | % of growth reduction respect to untreated controls, intracellular M. tuberculosis ([1]; concentration 0.125 μg/ml): 96.59%; % of growth reduction respect to untreated controls, intracellular M. tuberculosis ([1]; concentration 0.25 μg/ml): 99.83%; % of growth reduction respect to untreated controls, intracellular M. tuberculosis ([1]; concentration 0.5 μg/ml): 99.93%; % of growth reduction respect to untreated controls, intracellular M. tuberculosis ([1]; concentration 1 μg/ml): 99.97% |
| [H]/N=C(/N)N[C@H]1[C@H](O)[C@@H](O)[C@H](O[C@@H]2O[C@@H](C)[C@](O)(C=O)[C@H]2O[C@@H]2O[C@@H](CO)[C@H](O)[C@@H](O)[C@@H]2NC)[C@@H](N/C(N)=N\[H])[C@@H]1O [Streptomycin, SM, Streptomycin, reference compound] | 64 (≈ 110 µM) | 8 (≈ 13.8 µM) | 0.3 µg/mL | 0.3 (≈ 0.516 µM) | 8 (≈ 13.8 µM) | 8 (≈ 13.8 µM) | 32 (≈ 55 µM) | 0.5 (≈ 0.86 µM) |  |  |  |  |
